Experimental data published in US20250049778A1, “CRYSTALLINE FORM OF GLP-1 RECEPTOR AGONIST AND PREPARATION METHOD THEREFOR” (JIANGSU HENGRUI PHARMACEUTICALS CO., LTD., priority 2021, published 2025).

Tests used:
Format in all cases: physicochemical
[1] = Hygroscopicity of crystal forms by dynamic vapor sorption (DVS) at 25° C.; details: for Crystal form after DVS: two cycles
Procedure: Surface Measurement Systems advantage 2 is used for detection at 25° C. The humidity is 50%-95%-0%-95%-50% RH. The step is 10%. The criterion is that the mass change dM/dT for each step is less than 0.002%. TMAX is 360 min. Two cycles are carried out.
Surface Measurement Systems intrinsic DVS was used at 25° C. The observed humidity ranged from 0% to 95%. The step was 10%. The criterion was that the mass change dM/dT for each step was less than 0.002%. TMAX was 360 min. Two cycles were carried out.

[2] = Stability of crystal forms placed open under illumination, high temperature and high humidity, 30 days; details: for Physical and chemical stability (summary): illumination, 40° C. and 60° C., 75% RH and 92.5% RH
Text: The sampling and investigation period was 30 days.

[3] = Long-term/accelerated stability, sealed with aluminum foil bag
Text: The results were as shown below.

[4] = Illumination (4500 Lux), 5 days
[5] = Illumination (4500 Lux), 10 days
[6] = Illumination (4500 Lux), 30 days

Hygroscopic weight gain 0.0% RH to 80.0% RH [1]	Crystal form after DVS [1]	Purity % ([2]; 40° C., 5 days)	Purity % ([2]; 40° C., 10 days)	Purity % ([2]; 40° C., 30 days)	Purity % ([2]; 60° C., 5 days)	Purity % ([2]; 60° C., 10 days)	Purity % ([2]; 60° C., 30 days)	Purity % ([2]; 75% RH, 5 days)	Purity % ([2]; 75% RH, 10 days)	Purity % ([2]; 75% RH, 30 days)	Purity % ([2]; 92.5% RH, 5 days)	Purity % ([2]; 92.5% RH, 10 days)	Purity % ([2]; 92.5% RH, 30 days)	Purity % [2, 4]	Purity % [2, 5]	Purity % [2, 6]	Purity % ([2]; Initial condition, 0 days)	Physical and chemical stability (summary) ([2]; 30 days)	Purity % ([3]; 25° C./60% RH, 1 month)	also measured	SMILES
0.65%	Unchanged	98.8%	98.8%	98.8%	98.8%	98.7%	98.8%	98.7%	98.7%	98.7%	98.8%	98.7%	98.8%	98.7%	98.7%	98.8%	98.7%	good physical and chemical stability	99.5%	Purity % ([3]; 25° C./60% RH, 3 months): 99.5%; Purity % ([3]; 25° C./60% RH, 6 months): 99.5%; Crystal form ([3]; 25° C./60% RH, up to 6 months): Unchanged; Purity % ([3]; 40° C./75% RH, 1 month): 99.5%; Purity % ([3]; 40° C./75% RH, 3 months): 99.5%; Purity % ([3]; 40° C./75% RH, 6 months): 99.5%; Crystal form ([3]; 40° C./75% RH, up to 6 months): Unchanged; Purity % ([3]; Initial condition): 99.5%; Physical and chemical stability (summary) ([3]; placed for 6 months under long-term accelerated conditions): good physical and chemical stability	O=C(O)c1ccc2nc(CN3CCC(c4cccc5c4O[C@@H](c4ccc(Cl)cc4F)CO5)CC3)n(C[C@@H]3CCO3)c2c1 [Crystal form A of Compound A, 2-((4-((S)-3-(4-chloro-2-fluorophenyl)-2,3-dihydrobenzo[b][1,4]dioxan-5-yl)piperidin-1-yl)methyl)-1-(((S)-oxetan-2-yl)methyl)-1H-benzo[d]imidazole-6-carboxylic acid]
1.95%	Unchanged	98.4%	98.5%	98.5%	98.5%	98.6%	98.6%	98.5%	98.6%	98.5%	98.6%	98.6%	98.5%	98.5%	98.6%	98.6%	98.5%	good physical and chemical stability	98.6%	Purity % ([3]; 25° C./60% RH, 2 months): 98.6%; Purity % ([3]; 25° C./60% RH, 3 months): 98.5%; Crystal form ([3]; 25° C./60% RH, up to 3 months): Unchanged; Purity % ([3]; 40° C./75% RH, 1 month): 98.6%; Purity % ([3]; 40° C./75% RH, 2 months): 98.4%; Purity % ([3]; 40° C./75% RH, 3 months): 98.3%; Crystal form ([3]; 40° C./75% RH, up to 3 months): Unchanged; Purity % ([3]; Initial condition): 98.5%; Physical and chemical stability (summary) ([3]; placed for 3 months under long-term accelerated conditions): good physical and chemical stability	O=C(O)c1ccc2nc(CN3CCC(c4cccc5c4O[C@@H](c4ccc(Cl)cc4F)CO5)CC3)n(C[C@@H]3CCO3)c2c1 [Crystal form D of Compound A, 2-((4-((S)-3-(4-chloro-2-fluorophenyl)-2,3-dihydrobenzo[b][1,4]dioxan-5-yl)piperidin-1-yl)methyl)-1-(((S)-oxetan-2-yl)methyl)-1H-benzo[d]imidazole-6-carboxylic acid]
